Measurements from US20240423983A1, “ENHANCEMENT OF CD47 BLOCKADE THERAPY WITH DHFR INHIBITORS” (PF Argentum IP Holdings LLC, priority 2021, published 2024).
Where two headings read alike, the source gives them in different places.

Key:
[1] = tested on: human non-small cell lung cancer (NSCLC) xenograft; details: 2 mg/kg pralatrexate-treated group; cited from earlier work
NCI-H460 NSCLC xenograft = details: cited from earlier work
[2] = tested on: human T cell lymphoma cell line HH; assay: macrophage phagocytosis assay on human lymphoma cell line HH; assay type: cell-based; details: HH cells (CD47-sensitive), 2 h co-culture with macrophages; FIG. 1; vs single agents or no-treatment control
Method: (§1) A macrophage phagocytosis assay was conducted in order to assess the effects of the combination of a DHFRi and CD47 blocking agent as compared to the agents individually on macrophage phagocytosis of human lymphoma cells.
(§2) For the assay, the DHFRi was pralatrexate, and the CD47 blocking agent was an Fc fusion protein comprising soluble SIRPα (TTI-621). The lymphoma cells were human T cell lymphoma cell lines HH (ATCC Ref. CRL-2105) (a mature T cell line from peripheral blood of a patient with aggressive cutaneous T cell leukemia/lymphoma) or H9 (ATCC Ref. HTB-176) (a cutaneous T cell lymphoma). Thus, there were 4 experimental conditions for each lymphoma cell type: A) no treatment; B) pralatrexate only; C) TTI-621 (SIRPα-IgG1 Fc) only; and D) combination of pralatrexate and TTI-621.
(§3) PBMC from normal donors were purchased from BioIVT and informed consent was obtained from all donors. CD14+ monocytes were isolated from PBMCs by positive selection using human monocyte isolation kit. […] Phagocytosis was assessed as % VPD450+ cells of live, single CD14+CD11b+ macrophages by flow cytometry.

[3] = tested on: human T cell lymphoma cell line H9; assay: macrophage phagocytosis assay on human lymphoma cell line H9; assay type: cell-based; details: H9 cells (CD47-insensitive), 2 h co-culture with macrophages; FIG. 2; vs single agents or no-treatment control
Method: as §1, §2, §3

Compound | tumor growth inhibition (TGI) [1] [%] | tumor growth inhibition (TGI) (NCI-H460 NSCLC xenograft; 1 mg/kg) [%] | tumor growth inhibition (TGI) (NCI-H460 NSCLC xenograft; 2 mg/kg) [%] | percentage phagocytosis (% VPD450+ cells of live, single CD14+CD11b+ macrophages) [2] | percentage phagocytosis (% VPD450+ cells of live, single CD14+CD11b+ macrophages) [3]
C#CCC(Cc1cnc2nc(N)nc(N)c2n1)c1ccc(C(=O)N[C@@H](CCC(=O)O)C(=O)O)cc1 (some centres unmarked) [pralatrexate, Pralatrexate] | 38 | 34 | 52 |  | 
TTI-621: Fc fusion protein comprising soluble SIRPα (SIRPα-IgG1 Fc), SEQ ID NO: 9; CD47 blocking agent |  |  |  | increased phagocytosis | not present
